Counter-ions that a name gives are not always drawn.
What was measured:
[1] = test system: MCF-7 human mammary adenocarcinoma; test: Tumor cell growth inhibition in vitro; type: cell-based; details: Homo sapiens, MCF7, MCF-7; read-out: IC50
Procedure: (§1) The cells were cultured at an initial density of 2-5×10^4 cells per ml. […] For solid tumor cells growing in a monolayer (such as MCF-7/Adr), cytotoxicitiy of the drug was determined in 96-well microtiter plates by using the sulforhodamine B method as described by Skehan et al (23) for measuring the cellular protein content. For cells that were grown in suspension (such as CCRF-CEM and its sublines), cytotoxicitiy was measured by using the 2,-3-bis(2-methoxy-4-nitro-5-sulfophenyl)-5carboxanilide)-2H terazodium hydroxide (XTT)-microculture tetrazonium method (24) in duplicate in 96-well microtiter plates. For both methods, the absorbance of each well was measured with a microplate reader (EL-340, Bio-Tek, Burlington, Vt.). Each run entailed six or seven concentrations of the tested drugs. Dose-effect relationship data were analyzed with the median-effect plot (25) by using a previously described computer program (26).

MCF-7/Adr = test: Tumor cell growth inhibition in vitro; type: cell-based, human; details: Homo sapiens, NCI/ADR-RES, MCF-7/Adr
Procedure: as §1

[2] = test system: UL-3-C ovarian adenocarcinoma; test: Tumor cell growth inhibition in vitro; type: cell-based, human; details: Homo sapiens
Procedure: (§2) The fresh medium containing each drug was replenished every 7-14 days. […] In each case ,the drug-exposed cells were resuspended in fresh media for a minimum of 4 days before the experiments for the cell-growth inhibition was carried out.
(§3) The cells were cultured at an initial density of 2-5×10^4 cells per ml. They were maintained in a 5% CO2-humidified atmosphere at 37° C. in RPMI mediun 1640 (GIBCO/BRL) containing penicillin (100 units/ml), streptomycin (100 μg/ml) (GIBCO/BRL), and 5% heat-inactivated fetal bovine serum. For solid tumor cells growing in a monolayer (such as MCF-7/Adr), cytotoxicitiy of the drug was determined in 96-well microtiter plates by using the sulforhodamine B method as described by Skehan et al (23) for measuring the cellular protein content. For cells that were grown in suspension (such as CCRF-CEM and its sublines), cytotoxicitiy was measured by using the 2,-3-bis(2-methoxy-4-nitro-5-sulfophenyl)-5carboxanilide)-2H terazodium hydroxide (XTT)-microculture tetrazonium method (24) in duplicate in 96-well microtiter plates. For both methods, the absorbance of each well was measured with a microplate reader (EL-340, Bio-Tek, Burlington, Vt.). Each run entailed six or seven concentrations of the tested drugs. Dose-effect relationship data were analyzed with the median-effect plot (25) by using a previously described computer program (26).

CCRF-CEM/VBL = test: Relative potency in vitro, very highly resistant MDR cells; type: cell-based, human; details: Homo sapiens, CCRF-CEM, read-out: CCRF-CEM/VBL IC50 in μM
Procedure: as §3

CCRF-CEM/VBL1000 = test: Cell growth inhibition, resistant subline; type: cell-based; details: Homo sapiens
Procedure: as §2, §3

[3] = test system: A549 lung carcinoma xenograft; test: Human tumor xenograft in nude mice; type: in vivo; details: A549, i.v. infusion
Procedure: (§4) Depending on the tumor type, treatment started on day 10 to day 21 when subcutaneous tumor size reached 35-200 mm^3, except otherwise indicated. Tumor size and body-weight were recorded every other day (Q2D) and, for humane reasons, the animals were sacrificed when tumor size reached ≧10% of body-weight. Each group, including untreated control, consisted of 3-5 animals unless otherwise indicated.
(§5) Athymic nude mice bearing the nu/nu gene were used for all human tumor xenografts. Outbred, Swiss-background mice were obtained from Charles River Laboratories. Male mice 8 weeks or older weighing 22 g and up were used for most experiments. The drug was administered via the tail vein for 6 hr.-i.v. infusion. Each individual mouse was confined in a perforated Falcon polypropylene tube restrainer for drug administration. Tumor volume was assessed by measuring length×width×height (or width) using a caliper. The programmable Harvard PHD2000 syringe pump (Harvard Apparatus) with multi-track was used for i.v. infusion. […] All animal studies were conducted in accordance with the guidelines of the National Institutes of Health “Guide for the Care and Use of Animals” and the protocol approved by the Memorial Sloan-Kettering Cancer Center's Institutional Animal Care and Use Committee. In keeping with the policy of this committee for the humane treatment of tumor-bearing animals, mice were euthanized when tumors reached ≧10% of their total body weight.
(§6) Human tumor cells (5×10^6) or tumor tissue (30-50 mg) were implanted s.c. flank in nu/nu mice (Charles River Laboratories, Wilmington, Mass.). When tumor grew to a specified size, treatment was started by every-other day×5 with 6 hr i.v.-infusion, unless otherwise indicated. Tumor volume was measured with calipers in three dimensions (length×width×height or width). Body-weight changes and lethality were monitored every other day.

[4] = test system: PC-3 prostate adenocarcinoma xenograft; test: Human tumor xenograft in nude mice; type: in vivo; details: PC-3, i.v. infusion
Procedure: as §4, §5, §6

[5] = test system: MCF-7/Adr mammary xenograft; test: Human tumor xenograft in nude mice; type: in vivo; details: i.v. infusion
[6] = test system: K562 chronic myelocytic leukemia xenograft; test: Human tumor xenograft in nude mice; type: in vivo
Procedure: FIG. 34 depicts tumor size in nude mice bearing human leukemia […] tumor following 6 mg/kg C-15-Aza-EpoB, Q2D×6 and 30 mg/kg dEpoF, Q2ED×6 (i.v. infusion […].). K562 tumor cells (1×10^7 in 0.2 mL) were inoculated to nude mice on day 0. Mice were treated with 6 mg/kg aza-EpoB, 6 h-i.v. infusion on days 20, 22, 24, 26, 28 and 30 (Δ, n=3). The same group of mice were then treated with 30 mg/kg dEpoF, 6 h-i.v. infusion on days 42, 44, 46, 48, 52, and 54 (Δ, n=3). […] The control mice (∘, n=3) received vehicle only.
K562 tumor cells (1×10^7, in 0.2 ml/mouse) were implanted s.c. on day 0. […] The control mice (∘, n=4) received vehicle, Cremophor-ethanol (1:1), only. The vertical bars indicate mean tumor size in mm^3±S.E.
as §4, §5, §6

[7] = test system: MX-1 mammary carcinoma xenograft; details: MX-1, i.p., ref 19 (Table 4)
UL-3-B/Taxol = test: cells; details: Homo sapiens, UL-3-B/Taxol

## CC[C@]1(O)C[C@@H]2CN(CCc3c([nH]c4ccccc34)[C@@](C(=O)OC)(c3cc4c(cc3OC)N(C)[C@H]3[C@@](O)(C(=O)OC)[C@H](OC(C)=O)[C@]5(CC)C=CCN6CC[C@]43[C@@H]65)C2)C1 [Vinblastine, vinblastine sulfate, reference compound]
[1]
  IC50: 9.4 nM
MCF-7/Adr
  IC50: 25 nM
[2]
  IC50: 0.37 nM
CCRF-CEM/VBL
  IC50: 2.02 µM
CCRF-CEM/VBL1000
  IC50: 974 nM
[3]
  Therapeutic Effect Rank Order: Taxol, dEpoB, VBL>VP-16
[4]
  Therapeutic Effect Rank Order: Taxol, VBL>dEpoB>>VP-16
[5]
  Therapeutic Effect Rank Order: dEpoB>>VP-16, Taxol>VBL, Adriamycin
[6]; K562, i.v. infusion, FIG. 3 & 4
  Therapeutic Effect Rank Order: dEpoB>>>VBL> Taxol> Adriamycin
[6]; K562, dEpoB 30 mg/kg, Taxol 20 mg/kg 6 hr i.v. infusion, Adriamycin 3 mg/kg, vinblastine 2.5 mg/kg i.v., every other day from day 20 (FIG. 36)
  therapeutic effect: only partial curative or remissive effects
[7]
  Therapeutic Effect Rank Order: dEpoB>Camptothecin>Taxol>VBL, EpoB
UL-3-B/Taxol
  IC50: 3.1 nM
